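Five compound concentrations were applied to cells in 96-well plates for 48 hours; endpoints were derived by simple linear interpolation of the resulting dose-response curve. TGI is the concentration that stops growth completely.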
System: HOP-62 NSCLC
Experiment: DTP human tumour cell line panel, 48 h

Point of comparison: `C=C1CC(c2ccc(OCCCN3C(=O)c4ccccc4C3=O)c(OC)c2)OC1=O` (configuration not stated), TGI 30.6 µM. Against it:
- C[C@]12CC[C@H](O)CC1=CC[C@@H]1[C@@H]2CC[C@]2(C)C(=O)[C@@H](N3CCOCC3)C[C@@H]12 — higher, > 100 µM
- COc1ccc(C(=O)Sc2c(-c3ccccc3)c(=O)n(-c3ccccc3)c(=S)n2-c2ccccc2)cc1 — higher, > 100 µM
- Cc1ccc(S(=O)(=O)N/N=C/C(=C/c2ccc(Cl)cc2)CC(/C=N/NS(=O)(=O)c2ccc(C)cc2)=C\c2ccc(Cl)cc2)cc1 — 2.3-fold higher, 70.8 µM
- COc1cc(C[S+]2CCCC2)c(SC)cc1C[S+]1CCCC1 — higher, > 100 µM
- COCCOCc1nc(C#N)c(N)o1 — higher, > 100 µM
- CC1=C(C#N)C(C#N)(C#N)C(NN(C)C)C1 (configuration not stated) — within 1.5-fold, 30.4 µM
- C[C@]12C=CC(=O)C=C1CC[C@H]1[C@@H]3C[C@@H](O)[C@](O)(C(=O)CO)[C@@]3(C)C[C@H](O)[C@@]12F — higher, > 100 µM
- CCSc1n/c(=C\c2ccco2)c2nnnn12 — higher, > 100 µM
- CCOC(=O)C1=C(C)N(C)C23OC4(C(=O)OC)CC2c2ccccc2C1N3C4=O (configuration not stated) — higher, > 100 µM
- CC(=O)c1c2c(cc3c1CC1(Cc4ccccc4C1=O)C3)CCC2 (configuration not stated) — higher, > 100 µM
- CC(=O)NC1C(OCc2ccccc2)OC(CO)C(O)C1OC(C)C(=O)NC(C)C(=O)NC(CCC(=O)NCCCNc1c2ccccc2nc2cccc([N+](=O)[O-])c12)C(N)=O (configuration not stated) — 3.5-fold lower, 8.78 µM
- COc1cc(Nc2cnc3cc(F)c(F)cc3n2)cc(OC)c1OC — higher, > 100 µM
- COc1ccc(C2CC(=O)CC(c3ccc(OC)cc3)C23C(=O)NC(=O)NC3=O)cc1 (configuration not stated) — 2.7-fold higher, 82.2 µM
- COC(C)(C)C1=CCC(C)CC1 (configuration not stated) — higher, > 100 µM
- c1ccc2sc(C3(N4CCCC4)CCCCCC3)cc2c1 — within 1.5-fold, 36.1 µM

System: HS 578T breast
Experiment: DTP human tumour cell line panel, 48 h

Point of comparison: `CC(=O)NC1C(OCc2ccccc2)OC(CO)C(O)C1OC(C)C(=O)NC(C)C(=O)NC(CCC(=O)NCCCNc1c2ccccc2nc2cccc([N+](=O)[O-])c12)C(N)=O` (configuration not stated), TGI 40.4 µM. Against it:
- CC(=O)OCCn1cnc2nc(Nc3ccccc3)nc(Cl)c21 — higher, > 100 µM
- CCC1(CC)SCc2nc3ccccc3n21 — 2.1-fold higher, 82.9 µM
- O/N=C1/COC(C(F)(F)F)(C(F)(F)F)C1 — higher, > 100 µM
- O=S1(=O)OCCOS(=O)(=O)C1F — higher, > 100 µM
- C[C@]12CC[C@H](O)CC1=CC[C@@H]1[C@@H]2CC[C@]2(C)C(=O)[C@@H](N3CCOCC3)C[C@@H]12 — higher, > 100 µM
- COc1ccc(C(=O)Sc2c(-c3ccccc3)c(=O)n(-c3ccccc3)c(=S)n2-c2ccccc2)cc1 — higher, > 100 µM
- Cc1ccc(S(=O)(=O)N/N=C/C(=C/c2ccc(Cl)cc2)CC(/C=N/NS(=O)(=O)c2ccc(C)cc2)=C\c2ccc(Cl)cc2)cc1 — 1.9-fold lower, 21.5 µM
- COCCOCc1nc(C#N)c(N)o1 — higher, > 100 µM
- CC1=C(C#N)C(C#N)(C#N)C(NN(C)C)C1 (configuration not stated) — higher, > 100 µM
- CCSc1n/c(=C\c2ccco2)c2nnnn12 — higher, > 100 µM
- CC(=O)c1c2c(cc3c1CC1(Cc4ccccc4C1=O)C3)CCC2 (configuration not stated) — higher, > 100 µM
- COc1cc(Nc2cnc3cc(F)c(F)cc3n2)cc(OC)c1OC — higher, > 100 µM
- COC(C)(C)C1=CCC(C)CC1 (configuration not stated) — higher, > 100 µM
- C=C1CC(c2ccc(OCCCN3C(=O)c4ccccc4C3=O)c(OC)c2)OC1=O (configuration not stated) — within 1.5-fold, 32.4 µM

System: HT29 colon
Experiment: DTP human tumour cell line panel, 48 h

Point of comparison: `C=C1CC(c2ccc(OCCCN3C(=O)c4ccccc4C3=O)c(OC)c2)OC1=O` (configuration not stated), TGI 13.3 µM. Against it:
- S=C(NCc1ccccc1)c1nc[nH]c1C(=S)NCc1ccccc1 — 1.7-fold higher, 22.7 µM
- CC(=O)OCCn1cnc2nc(Nc3ccccc3)nc(Cl)c21 — higher, > 100 µM
- CCC1(CC)SCc2nc3ccccc3n21 — higher, > 100 µM
- O=C1OC[C@@H]2Cc3cc4c(cc3[C@H](c3ccc5c(c3)OCO5)[C@@H]12)OCO4 — higher, > 25 µM
- O/N=C1/COC(C(F)(F)F)(C(F)(F)F)C1 — higher, > 100 µM
- O=S1(=O)OCCOS(=O)(=O)C1F — higher, > 100 µM
- C[C@]12CC[C@H](O)CC1=CC[C@@H]1[C@@H]2CC[C@]2(C)C(=O)[C@@H](N3CCOCC3)C[C@@H]12 — higher, > 100 µM
- CC(=O)n1nc(-c2ccccc2)n(/N=C/c2ccc([N+](=O)[O-])cc2)c1=O — higher, > 100 µM
- COc1ccc(C(=O)Sc2c(-c3ccccc3)c(=O)n(-c3ccccc3)c(=S)n2-c2ccccc2)cc1 — higher, > 100 µM
- Cc1ccc(S(=O)(=O)N/N=C/C(=C/c2ccc(Cl)cc2)CC(/C=N/NS(=O)(=O)c2ccc(C)cc2)=C\c2ccc(Cl)cc2)cc1 — 1.8-fold higher, 24.1 µM
- COc1cc(C[S+]2CCCC2)c(SC)cc1C[S+]1CCCC1 — higher, > 100 µM
- COCCOCc1nc(C#N)c(N)o1 — higher, > 100 µM
- CC1=C(C#N)C(C#N)(C#N)C(NN(C)C)C1 (configuration not stated) — 2.9-fold higher, 38.3 µM
- C[C@]12C=CC(=O)C=C1CC[C@H]1[C@@H]3C[C@@H](O)[C@](O)(C(=O)CO)[C@@]3(C)C[C@H](O)[C@@]12F — higher, > 100 µM
- CCSc1n/c(=C\c2ccco2)c2nnnn12 — higher, > 100 µM
- CCOC(=O)C1=C(C)N(C)C23OC4(C(=O)OC)CC2c2ccccc2C1N3C4=O (configuration not stated) — higher, > 100 µM
- CC(=O)c1c2c(cc3c1CC1(Cc4ccccc4C1=O)C3)CCC2 (configuration not stated) — higher, > 100 µM
- CC(=O)NC1C(OCc2ccccc2)OC(CO)C(O)C1OC(C)C(=O)NC(C)C(=O)NC(CCC(=O)NCCCNc1c2ccccc2nc2cccc([N+](=O)[O-])c12)C(N)=O (configuration not stated) — higher, > 100 µM
- COc1cc(Nc2cnc3cc(F)c(F)cc3n2)cc(OC)c1OC — higher, > 100 µM
- COc1ccc(C2CC(=O)CC(c3ccc(OC)cc3)C23C(=O)NC(=O)NC3=O)cc1 (configuration not stated) — higher, > 100 µM
- COC(C)(C)C1=CCC(C)CC1 (configuration not stated) — higher, > 100 µM
- c1ccc2sc(C3(N4CCCC4)CCCCCC3)cc2c1 — within 1.5-fold, 19.3 µM

System: IGROV1 ovarian
Experiment: DTP human tumour cell line panel, 48 h

Point of comparison: `S=C(NCc1ccccc1)c1nc[nH]c1C(=S)NCc1ccccc1`, TGI 19.8 µM. Against it:
- CC(=O)OCCn1cnc2nc(Nc3ccccc3)nc(Cl)c21 — higher, > 100 µM
- CCC1(CC)SCc2nc3ccccc3n21 — higher, > 100 µM

From PubChem BioAssay (NCI)
